This note sets out measurements from publication PMC6915887, “Inhibition of human carboxylesterases by ginsenosides: structure–activity relationships and inhibitory mechanism” (Chinese Medicine, 2019).

Test [1] deals with T1, hCES1A (Homo sapiens, UniProt P23141).
T1 construct: tissue Bioreclamation IVT lot no; X008067; host or cells: pooled human liver microsomes (50 donors)
T1 sequence (P23141 18-567): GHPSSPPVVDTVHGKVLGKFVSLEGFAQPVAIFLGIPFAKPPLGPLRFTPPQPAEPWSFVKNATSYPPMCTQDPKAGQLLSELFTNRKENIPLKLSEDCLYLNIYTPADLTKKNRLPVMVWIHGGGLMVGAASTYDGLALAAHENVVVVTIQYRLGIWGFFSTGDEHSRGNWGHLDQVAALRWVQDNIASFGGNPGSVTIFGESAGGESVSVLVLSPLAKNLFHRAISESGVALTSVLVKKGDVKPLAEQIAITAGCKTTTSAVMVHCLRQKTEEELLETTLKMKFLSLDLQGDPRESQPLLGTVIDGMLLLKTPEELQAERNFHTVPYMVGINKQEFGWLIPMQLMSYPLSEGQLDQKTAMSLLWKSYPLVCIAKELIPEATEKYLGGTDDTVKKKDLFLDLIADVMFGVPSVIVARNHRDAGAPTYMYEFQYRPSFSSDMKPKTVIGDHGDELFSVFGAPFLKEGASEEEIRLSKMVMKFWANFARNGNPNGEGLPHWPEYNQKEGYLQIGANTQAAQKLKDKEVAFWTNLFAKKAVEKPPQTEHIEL
Put plainly: hCES1A inhibition assay (DME hydrolysis in HLM).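 As to all read-outs here: Read-out is D-luciferin luminescence formed from DME (3 µM) after 10 min at 37 °C in pH 6.5 PBS, HLM 1 µg/mL, inhibitor preincubated 3 min, oleanic acid as positive control.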 It counts as biochemical. The note with it: for inhibition of hCES1A-mediated DME hydrolysis (residual activity screen): HLM, ginsenoside 100 μM, result in words.
Method: DME hydrolysis was used as the probe reaction to assay the inhibitory effects of 25 ginsenosides against hCES1A, oleanic acid was used as a positive control of inhibition assays [43]. The incubation system contains 91 μL PBS (0.1 M pH 6.5), 5 μL HLM (1 μg/mL, final concentration) and 2 μL corresponding inhibitor. After pre-incubating the reaction mixture for 3 min at 37 °C, the reaction was started by adding 2 μL DME (3 μM, final concentration) with a total volume of 100 μL, in which the final content of DMSO was limited to 2% (v/v). After incubating for 10 min at 37 °C in a shaking bath, LDR (50 μL, equal volume of the incubation mixture) was added to terminate the reaction. The luminescence signals of D-luciferin (the hydrolytic metabolite of DME) was measured (excitation wavelength 580 nm) by a multi-mode microplate reader (SpectraMax® iD3, Molecular Devices, Austria).
(§1) All inhibition assays were performed in triplicate, nonlinear regression was used to determine the IC50 and Ki values with GraphPad Prism 7.0 software (GraphPad Software, Inc., La Jolla, USA).

Test [2] concerns the target T2, hCES2A (Homo sapiens, UniProt O00748).
T2 construct: tissue Bioreclamation IVT lot no; X008067; host or cells: pooled human liver microsomes (50 donors)
T2 sequence (O00748 27-559): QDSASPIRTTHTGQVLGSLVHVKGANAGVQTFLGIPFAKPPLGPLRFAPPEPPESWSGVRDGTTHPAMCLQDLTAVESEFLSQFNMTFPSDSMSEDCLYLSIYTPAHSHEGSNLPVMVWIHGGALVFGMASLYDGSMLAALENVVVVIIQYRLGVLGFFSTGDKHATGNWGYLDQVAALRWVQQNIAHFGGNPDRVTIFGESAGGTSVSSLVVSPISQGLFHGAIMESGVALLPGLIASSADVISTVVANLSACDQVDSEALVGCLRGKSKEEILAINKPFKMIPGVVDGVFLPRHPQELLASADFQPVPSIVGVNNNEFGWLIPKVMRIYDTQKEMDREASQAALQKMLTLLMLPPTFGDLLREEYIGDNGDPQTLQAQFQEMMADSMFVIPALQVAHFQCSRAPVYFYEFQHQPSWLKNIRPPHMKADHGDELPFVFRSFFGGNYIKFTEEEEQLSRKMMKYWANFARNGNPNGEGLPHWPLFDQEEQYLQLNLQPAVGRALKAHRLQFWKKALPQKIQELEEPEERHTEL
Put plainly: hCES2A inhibition assay (FD hydrolysis in HLM).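 As to all read-outs here: HLM at 1 µg/mL in 0.1 M PBS pH 7.4, kinetic read at 37 °C every 30 s over 30 min, triplicate runs.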 It counts as biochemical. The note with it: for Specificity (hCES1A/hCES2A): ratio of IC50 values in HLM; for inhibition of hCES2A-mediated FD hydrolysis (residual activity screen): HLM, ginsenoside 100 μM, result in words.
Method: The incubation system contains 2 μL HLM (1 μg/mL, final concentration), 194 μL PBS (0.1 M pH 7.4) and 2 μL corresponding inhibitor. […] The kinetic parameters were set at 30 reads, with an interval of 30 s (30 min) and shake during 5 s before the first read at 37 °C.
as §1

[3] abbreviates: HLM as enzyme source, DME hydrolysis as probe reaction, read-out: IC50 (μM) hCES1A.
Where [4] appears, read: HLM as enzyme source, FD hydrolysis as probe reaction, read-out: IC50 (μM) hCES2A.

Like-named read-outs stand apart in the source and are kept apart here.

For orientation: IC50 means the concentration that inhibits the measured activity by half. For `CC(C)=CCC[C@](C)(O[C@@H]1O[C@H](CO)[C@@H](O)[C@H](O)[C@H]1O)[C@H]1CC[C@]2(C)[C@@H]1[C@H](O)C[C@@H]1[C@@]3(C)CC[C@H](O)C(C)(C)[C@@H]3CC[C@]12C` [C-K, ginsenoside C-K], in test [1] (setting [3]), the concentration for half-maximal inhibition (IC50) was greater than 100 µM.
In the case of `CC(C)=CCC[C@](C)(O[C@@H]1O[C@H](CO)[C@@H](O)[C@H](O)[C@H]1O)[C@H]1CC[C@]2(C)[C@@H]1[C@H](O)C[C@@H]1[C@@]3(C)CC[C@H](O)C(C)(C)[C@@H]3[C@@H](O)C[C@]12C` [F1, ginsenoside F1], in test [2], the “Specificity (hCES1A/hCES2A)” value is reported as greater than 2.70. Besides, the 50% inhibitory concentration (IC50) in test [1] (setting [3]) was greater than 100 µM.
Take `CC(C)=CCC[C@](C)(O[C@@H]1O[C@H](CO)[C@@H](O)[C@H](O)[C@H]1O)[C@H]1CC[C@]2(C)[C@@H]1[C@H](O)C[C@@H]1[C@@]3(C)CC[C@H](O[C@@H]4O[C@H](CO)[C@@H](O)[C@H](O)[C@H]4O)C(C)(C)[C@@H]3CC[C@]12C` [F2]: the concentration for half-maximal inhibition (IC50) in test [1] (setting [3]) was greater than 100 µM.
In the case of `CC(C)=CC/C=C(/C)C1CC[C@]2(C)C1[C@H](O)CC1[C@@]3(C)CC[C@H](O)C(C)(C)C3[C@@H](O[C@@H]3O[C@H](CO)[C@@H](O)[C@H](O)[C@H]3O[C@@H]3O[C@@H](C)[C@H](O)[C@@H](O)[C@H]3O)C[C@]12C` (stereo partly shown) [F4], the “Specificity (hCES1A/hCES2A)” value in test [2] is recorded as greater than 2.22. Further, the IC50 in test [1] (setting [3]) was greater than 100 µM.
For the molecule `CC1(C)CCC[C@](C)([C@H]2CC[C@]3(C)[C@@H]2[C@H](O)C[C@@H]2[C@@]4(C)CC[C@H](O)C(C)(C)[C@@H]4CC[C@]23C)O1` [Panaxadiol, panaxadiol], in test [2], the “inhibition of hCES2A-mediated FD hydrolysis (residual activity screen)” value is on record as “strong or moderate inhibition” and the “Specificity (hCES1A/hCES2A)” value turned out to be 1.84. Also, the half-inhibitory concentration (IC50) in test [1] (setting [3]) was 6.95 ± 1.29 µM.
Turning to `CC1(C)CCC[C@](C)([C@H]2CC[C@]3(C)[C@@H]2[C@H](O)C[C@@H]2[C@@]4(C)CC[C@H](O)C(C)(C)[C@@H]4[C@@H](O)C[C@]23C)O1` [Panaxatriol, panaxatriol], the IC50 in test [1] (setting [3]) was found to be 34.9 ± 6.16 µM.
For `CC(C)=CCC[C@](C)(O[C@@H]1O[C@H](CO)[C@@H](O)[C@H](O)[C@H]1O)C1CC[C@]2(C)C1[C@H](O)CC1[C@@]3(C)CC[C@H](O)C(C)(C)C3[C@@H](O[C@@H]3O[C@H](CO)[C@@H](O)[C@H](O)[C@H]3O[C@@H]3OC[C@@H](O)[C@H](O)[C@H]3O)C[C@]12C` (stereo partly shown) [R1, ginsenoside R1], the IC50 in test [2] (setting [4]) and in test [1] (setting [3]) was greater than 100 µM each time.
On to `CC(C)=CCC[C@](C)(O[C@@H]1O[C@H](CO[C@@H]2O[C@H](CO)[C@@H](O)[C@H](O)[C@H]2O)[C@@H](O)[C@H](O)[C@H]1O)[C@H]1CC[C@]2(C)[C@@H]1[C@H](O)C[C@@H]1[C@@]3(C)CC[C@H](O[C@@H]4O[C@H](CO)[C@@H](O)[C@H](O)[C@H]4O[C@@H]4O[C@H](CO)[C@@H](O)[C@H](O)[C@H]4O)C(C)(C)[C@@H]3CC[C@]12C` [Rb1], for which the IC50 in test [2] (setting [4]) and in test [1] (setting [3]) was greater than 100 µM each time. Moreover, the “inhibition of hCES2A-mediated FD hydrolysis (residual activity screen)” value in test [2] is reported as “hardly inhibit”. Besides, the “inhibition of hCES1A-mediated DME hydrolysis (residual activity screen)” value in test [1] is on record as “hardly inhibit”.
`CC(C)=CCC[C@](C)(O[C@@H]1O[C@H](CO[C@@H]2OC[C@H](O)[C@H](O)[C@H]2O)[C@@H](O)[C@H](O)[C@H]1O)[C@H]1CC[C@]2(C)[C@@H]1[C@H](O)C[C@@H]1[C@@]3(C)CC[C@H](O[C@@H]4O[C@H](CO)[C@@H](O)[C@H](O)[C@H]4O[C@@H]4O[C@H](CO)[C@@H](O)[C@H](O)[C@H]4O)C(C)(C)[C@@H]3CC[C@]12C` [Rb2]: the IC50 in test [2] (setting [4]) and in test [1] (setting [3]) was greater than 100 µM in each case. Further, in test [2], the “inhibition of hCES2A-mediated FD hydrolysis (residual activity screen)” value is given as “hardly inhibit”. Further, in test [1], the “inhibition of hCES1A-mediated DME hydrolysis (residual activity screen)” value is listed as “hardly inhibit”.
Turning to `CC(C)=CCC[C@](C)(O[C@@H]1O[C@H](CO[C@@H]2OC[C@@H](O)[C@H](O)[C@H]2O)[C@@H](O)[C@H](O)[C@H]1O)[C@H]1CC[C@]2(C)[C@@H]1[C@H](O)C[C@@H]1[C@@]3(C)CC[C@H](O[C@@H]4O[C@H](CO)[C@@H](O)[C@H](O)[C@H]4O[C@@H]4O[C@H](CO)[C@@H](O)[C@H](O)[C@H]4O)C(C)(C)[C@@H]3CC[C@]12C` [Rb3], the IC50 in test [2] (setting [4]) and in test [1] (setting [3]) was greater than 100 µM throughout. Also, in test [2], the “inhibition of hCES2A-mediated FD hydrolysis (residual activity screen)” value was “hardly inhibit”. For the same molecule, the “inhibition of hCES1A-mediated DME hydrolysis (residual activity screen)” value in test [1] was “hardly inhibit”.
In the case of `CC(C)=CCC[C@](C)(O[C@@H]1O[C@H](CO[C@@H]2O[C@@H](CO)[C@H](O)[C@H]2O)[C@@H](O)[C@H](O)[C@H]1O)[C@H]1CC[C@]2(C)[C@@H]1[C@H](O)C[C@@H]1[C@@]3(C)CC[C@H](O[C@@H]4O[C@H](CO)[C@@H](O)[C@H](O)[C@H]4O[C@@H]4O[C@H](CO)[C@@H](O)[C@H](O)[C@H]4O)C(C)(C)[C@@H]3CC[C@]12C` [Rc], the “Specificity (hCES1A/hCES2A)” value in test [2] was greater than 1.22. For the same molecule, the IC50 in test [1] (setting [3]) was greater than 100 µM.
For `CC(C)=CCC[C@](C)(O[C@@H]1O[C@H](CO)[C@@H](O)[C@H](O)[C@H]1O)[C@H]1CC[C@]2(C)[C@@H]1[C@H](O)C[C@@H]1[C@@]3(C)CC[C@H](O[C@@H]4O[C@H](CO)[C@@H](O)[C@H](O)[C@H]4O[C@@H]4O[C@H](CO)[C@@H](O)[C@H](O)[C@H]4O)C(C)(C)[C@@H]3CC[C@]12C` [Rd] the same measures were greater than 7.12 and greater than 100 µM.
Consider `CC(C)=CCC[C@](C)(O[C@@H]1O[C@H](CO)[C@@H](O)[C@H](O)[C@H]1O)[C@H]1CC[C@]2(C)[C@@H]1[C@H](O)C[C@@H]1[C@@]3(C)CC[C@H](O)C(C)(C)[C@@H]3[C@@H](O[C@@H]3O[C@H](CO)[C@@H](O)[C@H](O)[C@H]3O[C@@H]3O[C@@H](C)[C@H](O)[C@@H](O)[C@H]3O)C[C@]12C` [Re, ginsenoside Re], for which the half-inhibitory concentration (IC50) in test [2] (setting [4]) and in test [1] (setting [3]) was greater than 100 µM each time. Also, the “inhibition of hCES2A-mediated FD hydrolysis (residual activity screen)” value in test [2] was “hardly inhibit”. The “inhibition of hCES1A-mediated DME hydrolysis (residual activity screen)” value in test [1] is recorded as “hardly inhibit”.
On to `CC(C)=CCC[C@](C)(O[C@@H]1O[C@H](CO)[C@@H](O)[C@H](O)[C@H]1O)[C@H]1CC[C@]2(C)[C@@H]1[C@H](O)C[C@@H]1[C@@]3(C)CC[C@H](O)C(C)(C)[C@@H]3[C@@H](O[C@@H]3O[C@H](CO)[C@@H](O)[C@H](O)[C@H]3O)C[C@]12C` [Rg1, ginsenoside Rg1], for which the IC50 in test [2] (setting [4]) and in test [1] (setting [3]) was greater than 100 µM in each case. The “inhibition of hCES2A-mediated FD hydrolysis (residual activity screen)” value in test [2] was “hardly inhibit”. Moreover, the “inhibition of hCES1A-mediated DME hydrolysis (residual activity screen)” value in test [1] is “hardly inhibit”.
As for `CC(C)=CCC[C@](C)(O)[C@H]1CC[C@]2(C)[C@@H]1[C@H](O)C[C@@H]1[C@@]3(C)CC[C@H](O)C(C)(C)[C@@H]3[C@@H](O[C@@H]3O[C@H](CO)[C@@H](O)[C@H](O)[C@H]3O[C@@H]3O[C@@H](C)[C@H](O)[C@@H](O)[C@H]3O)C[C@]12C` [Rg2, ginsenoside Rg2], the IC50 in test [2] (setting [4]) and in test [1] (setting [3]) was greater than 100 µM each time. Moreover, the “inhibition of hCES2A-mediated FD hydrolysis (residual activity screen)” value in test [2] is recorded as “hardly inhibit”. Moreover, the “inhibition of hCES1A-mediated DME hydrolysis (residual activity screen)” value in test [1] is “hardly inhibit”.
Take `CC(C)=CCC[C@](C)(O)C1CC[C@]2(C)C1[C@H](O)CC1[C@@]3(C)CC[C@H](O[C@@H]4O[C@H](CO)[C@@H](O)[C@H](O)[C@H]4O[C@@H]4O[C@H](CO)[C@@H](O)[C@H](O)[C@H]4O)C(C)(C)C3CC[C@]12C` (stereo partly shown) [Rg3]: the “Specificity (hCES1A/hCES2A)” value in test [2] is given as greater than 9.64. In test [1] (setting [3]), the IC50 is greater than 100 µM.
Consider `CC(C)=CCC[C@](C)(O)[C@H]1CC[C@]2(C)[C@@H]1[C@H](O)C[C@@H]1[C@@]3(C)CC[C@H](O)C(C)(C)[C@@H]3[C@@H](O[C@@H]3O[C@H](CO)[C@@H](O)[C@H](O)[C@H]3O)C[C@]12C` [Rh1, ginsenoside Rh1], for which the IC50 in test [2] and in test [1] was greater than 100 µM in each case.
On to `CC(C)=CC/C=C(\C)[C@H]1CC[C@]2(C)[C@@H]1[C@H](O)C[C@@H]1[C@@]3(C)CC[C@H](O)C(C)(C)[C@@H]3[C@@H](O[C@@H]3O[C@H](CO)[C@@H](O)[C@H](O)[C@H]3O)C[C@]12C` [Rh4], for which the IC50 in test [1] (setting [3]) is greater than 100 µM.
Still for that read-out and setting: with `CC1(C)CC[C@]2(C(=O)O)CC[C@]3(C)C(=CC[C@@H]4[C@@]5(C)CC[C@H](O)C(C)(C)[C@@H]5CC[C@]43C)[C@@H]2C1` [oleanic acid, reference compound] the figure was 0.1 µM.
